# Assay results: article PMC12785453, “Oral Fluid Concentrations and Pharmacological Effects of Clephedrone and Methylone in Humans” (International Journal of Molecular Sciences, 2025)
# Tested on: healthy male participants
# Experiment: Physiological effects (SBP, DBP, HR, T), controlled methylone pilot clinical trial
# Assay type: in vivo, humans
# Protocol: Methylone pharmacology was evaluated in a study designed as a randomized, double-blind, placebo-controlled, crossover clinical trial. Four pilot studies were conducted administering methylone at oral doses of 50 (n = 3), 100 (n = 6), 150 (n = 5), and 200 mg (n = 7). Participants attended 3 experimental sessions separated by a one-week wash-out period and received two doses of methylone (one dose per experimental session) compared to placebo, except in the last pilot study in which participants received one dose of methylone, compared to MDMA and placebo. However, in this manuscript, only the results corresponding to the highest methylone doses (n = 12; 150 and 200 mg; mean dose = 179.2 mg) are presented, to enable comparison with clephedrone self-administration. Participants were recruited by word of mouth in the volunteer database of the clinical pharmacology unit.
# Participants of the naturalistic clephedrone study were summoned at 15:00 h at the private club where sessions were carried out. The club remained closed to the public until the end of the session, approximately at 21:00 h. As a naturalistic study, participants were left free to talk, read, play games, or listen to music in the time between study evaluations. To avoid possible influences between participants, they were asked to refrain from talking about the effects of the self-administered substance. The experimental sessions of the controlled pilot trial were carried out at the Clinical Research Unit (UPIC) of the Germans Trias i Pujol hospital, where participants were summoned at 7:45 a.m. after fasting overnight and remained there for approximately 11 h.
# Methylone hydrochloride of high purity in powder form was acquired from LGC Standards (Teddington, UK) for the controlled study. The Pharmacy Department of the Hospital Universitari Germans Trias i Pujol was responsible for manufacturing, storing, and dispensing identical and opaque soft gelatin capsules containing 50 mg of methylone or a placebo (maltodextrin). Treatment consisted of 5 capsules that combined methylone and/or a placebo to reach the target dose. Details can be found in the previous article.
# In the controlled methylone study, vital signs monitors (Philips Sure Signs VM4 monitors, Philips, Amsterdam, The Netherlands) were used to measure SBP, DBP, HR, and oral temperature at baseline (−30 and −15 min) and 0.25, 0.50, 0.75, 1.5, 2, 3, 4, 6, 8, 10, and 24 h after administration. For these evaluations, participants rested in hospital beds in a position of back elevation. Furthermore, electrocardiograms were constantly monitored throughout the sessions for safety reasons.
# For statistical analysis, values of physiological (SBP, DBP, HR, and T) and subjective effects (VAS, ARCI, and VESSPA-SSE) were baseline–adjusted. Maximum effects (Emax) and the time needed to reach maximum effects (Tmax) were determined, and the area under the curve up to 5 h (AUC0–5h) for clephedrone and up to 6 h (AUC0–6h) for methylone was calculated using the trapezoidal rule. Emax and AUC values are presented as mean ± standard deviation, whereas Tmax is presented in median (range).
# To find possible significant changes through the time course compared to baseline, a Dunnett multiple comparison test was carried out to compare each time point with baseline in both drug conditions. For clephedrone the comparisons were 0–0.5 h, 0–1 h, 0–1.5 h, 0–2 h, 0–3 h, 0–4 h and 0–5 h, and for methylone this analysis included 0–0.25 h, 0–0.5 h, 0–0.75 h, 0–1 h, 0–1.5 h, 0–2 h, 0–3 h, 0–4 h and 0–6 h. Given their different study designs, no comparative analysis between the time courses of both synthetic cathinones was conducted.
# [1] = 150 or 200 mg oral, n=12, listed as methylone
# [2] = AUC0–6h, 150 or 200 mg oral, n=12
structure (smiles),measurement,setting,value
"CNC(C)C(=O)c1ccc2c(c1)OCO2 (stereo not shown) [Methylone, 3,4-methylenedioxy-N-methylcathinone]",Onset of cardiovascular effects after administration,150 or 200 mg oral,0.5 h
same,SBP effects returned to baseline,150 or 200 mg oral,3 h
same,DBP Emax,"150 or 200 mg oral, n=12",3.75 ± 11.52 mmHg
same,HR Emax,"150 or 200 mg oral, n=12",28.75 ± 16.09 bpm
same,SBP Emax,"150 or 200 mg oral, n=12",27.04 ± 10.72 mmHg
same,DBP Emax,[1],3.75 mmHg
same,HR Emax,[1],28.75 bpm
same,SBP Emax,[1],27.04 mmHg
same,HR AUC0-5/6 h,[2],97.07 ± 69.24 bpm·h
same,SBP AUC0-5/6 h,[2],38.70 ± 26.84 mmHg·h
same,T AUC0-5/6 h,"AUC0–6h, oral temperature, 150 or 200 mg oral, n=12",0.88 ± 1.34 °C·h
same,"Tolerability, serious adverse events",all administered doses (150 or 200 mg oral),well tolerated
same,T Emax,"oral temperature, 150 or 200 mg oral, n=12",0.23 ± 0.34 °C
